≈ marks a conversion by molar mass, not a printed value.
What was measured:
Experiment in all cases: MIC assay, broth microdilution in CAMHB
Assay type in all cases: cell-based
[1] = tested on: S. aureus ASAU1028 (CA-MRSA, USA400); conditions: 2% NaCl, 16-20 h at 35° C.; for MIC: Staphylococcus aureus, read-out: MIC ASAU 1028
Protocol: (§1) The in vitro MIC for bacterial isolates may be obtained in the following manner: a test compound is incorporated into a series of two-fold dilutions in cation adjusted Mueller-Hinton broth (CAMHB). Different bacterial strains diluted to provide a uniform inoculum are added to the CAMHB containing test compounds. A well without test compound is included for each strain as a growth control. […] The procedures used in these experiments are generally those standardized by the Clinical and Laboratory Standards Institute (CLSI), as set forth in the CLSI publication entitled “M7-A7. Methods for dilution antimicrobial susceptibility tests for bacteria that grow aerobically; approved standard-seventh edition.” (2006), which is incorporated by reference as if fully set forth herein. The following exemplifies such a procedure although it is to be understood that modifications of the procedure may be implemented as required.
(§2) Two-fold dilutions of the test compounds are prepared in CAMHB at 2× the concentration range to be tested if the compounds are soluble in aqueous solution. Alternately, dimethylsulfoxide (DMSO) is used to prepare two-fold dilutions at 10× the concentration range to be tested. Reference drugs such as cefotaxime, vancomycin or imipenem are used as positive controls. A few isolated colonies are retrieved from a pure culture prepared on an agar plate and suspended in PBS until the turbidity of the suspension matches a 0.5 McFarland standard which is equal to approximately 10^8 CFU/mL. This solution is further diluted in CAMHB to 10^6 CFU/mL if compounds are diluted in CAMHB and 5×10^5 CFU/mL if compounds are diluted in DMSO. The CAMHB plates containing the compound dilutions are combined in equal volumes with the higher density inoculum, or 10 μL of the DMSO dilutions are added to the lower density inoculum. When S. aureus is the organism being tested and the compound is oxacillin, a beta-lactam or a carbacephem compound of the present invention, 2% NaCl is added to the growth media. The plates are then incubated for 16-20 h at 35° C. The plates are then observed to determine which concentration of the test compound is the MIC.

[2] = tested on: S. aureus ASAU1029 (CA-MRSA, USA300); conditions: 2% NaCl, 16-20 h at 35° C.; for MIC: Staphylococcus aureus, read-out: MIC ASAU 1029
Protocol: as §1, §2

[3] = tested on: S. aureus ASAU002 (MRSA ATCC 33591); conditions: 2% NaCl, 16-20 h at 35° C.; for MIC: Staphylococcus aureus, read-out: MIC ASAU 002
Protocol: as §1, §2

[4] = tested on: S. aureus ASAU1043 (MRSA, CIP, ERY, CLI, GEN resistant); conditions: 2% NaCl, 16-20 h at 35° C.; for MIC: Staphylococcus aureus, read-out: MIC ASAU 1043
Protocol: as §1, §2

[5] = tested on: S. aureus ASAU1033 (MRSA, CIP, ERY, CLIN, TET, GEN resistant); conditions: 2% NaCl, 16-20 h at 35° C.; for MIC: Staphylococcus aureus, read-out: MIC ASAU 1033
Protocol: as §1, §2

[6] = tested on: S. aureus ASAU001 (Susceptible Organism ATCC 29213); conditions: 16-20 h at 35° C.; for MIC: Staphylococcus aureus, ATCC29213, 2% NaCl, read-out: MIC ASAU 001
Protocol: as §1, §2

SMILES | MIC [1] | MIC [2] | MIC [3] | MIC [4] | MIC [5] | MIC [6] | MIC ASAU 1028 [1] | MIC ASAU 1029 [2] | MIC ASAU 002 [3] | MIC ASAU 1043 [4] | MIC ASAU 1033 [5] | MIC ASAU 001 ([6]; 2% NaCl)
Nc1nc(/C(=N\O)C(=O)NC2C(=O)N3C(C(=O)O)=C(/C=C4\CCN(C5CCNC5)C4=O)CS[C@H]23)ns1 (stereo partly drawn) [Comparative Compound 1, reference compound] | ≤ 1 µg/mL | ≤ 1 µg/mL | 1 to 8 µg/mL (≈ 1.87 to 15 µM) | 1 to 8 µg/mL (≈ 1.87 to 15 µM) | 1 to 8 µg/mL (≈ 1.87 to 15 µM) | ≤ 1 µg/mL |  |  |  |  |  | 
Nc1nnc(SC2=C(C(=O)O)N3C(=O)[C@@H](NC(=O)/C(=N\O)c4nc(N)sc4Cl)[C@H]3CC2)s1 [Comparative Compound 2, reference compound] | 1 to 8 µg/mL (≈ 1.93 to 15.5 µM) | 1 to 8 µg/mL (≈ 1.93 to 15.5 µM) | ≤ 1 µg/mL | 1 to 8 µg/mL (≈ 1.93 to 15.5 µM) | 1 to 8 µg/mL (≈ 1.93 to 15.5 µM) | ≤ 1 µg/mL |  |  |  |  |  | 
Nc1nc(/C(=N/O)C(=O)N[C@@H]2C(=O)N3C(C(=O)O)=C(SCc4ccncc4)CC[C@H]23)c(Cl)s1 [Example 17, (6R,7S,Z)-7-(2-(2-amino-5-chlorothiazol-4-yl)-2-(hydroxyimino)acetamido)-8-oxo-3-(pyridin-4-ylmethylthio)-1-aza-bicyclo[4.2.0]oct-2-ene-2-carboxylic acid] | 1 to 8 µg/mL (≈ 1.96 to 15.7 µM) | 1 to 8 µg/mL (≈ 1.96 to 15.7 µM) | > 8 µg/mL | > 8 µg/mL | > 8 µg/mL | ≤ 1 µg/mL |  |  |  |  |  | 
Nc1nc(/C(=N/O)C(=O)N[C@@H]2C(=O)N3C(C(=O)O)=C(SCc4ccccc4)CC[C@H]23)c(Cl)s1 [Example 18, (6R,7S,Z)-7-(2-(2-amino-5-chlorothiazol-4-yl)-2-(hydroxyimino)acetamido)-3-(benzylthio)-8-oxo-1-aza-bicyclo[4.2.0]oct-2-ene-2-carboxylic acid] | ≤ 1 µg/mL | ≤ 1 µg/mL | ≤ 1 µg/mL | 1 to 8 µg/mL (≈ 1.97 to 15.7 µM) | 1 to 8 µg/mL (≈ 1.97 to 15.7 µM) | ≤ 1 µg/mL |  |  |  |  |  | 
Nc1nc(/C(=N/O)C(=O)N[C@@H]2C(=O)N3C(C(=O)O)=C(SCSc4nncs4)CC[C@H]23)c(Cl)s1 [Example 23, (6R,7S,Z)-3-((1,3,4-thiadiazol-2-ylthio)methylthio)-7-(2-(2-amino-5-chlorothiazol-4-yl)-2-(hydroxyimino)acetamido)-8-oxo-1-aza-bicyclo[4.2.0]oct-2-ene-2-carboxylic acid] | 1 to 8 µg/mL (≈ 1.82 to 14.6 µM) | 1 to 8 µg/mL (≈ 1.82 to 14.6 µM) | 1 to 8 µg/mL (≈ 1.82 to 14.6 µM) | > 8 µg/mL | > 8 µg/mL | ≤ 1 µg/mL |  |  |  |  |  | 
CNc1nnc(SCSC2=C(C(=O)O)N3C(=O)[C@@H](NC(=O)/C(=N\O)c4nc(N)sc4Cl)[C@H]3CC2)s1 [Example 25, (6R,7S,Z)-7-(2-(2-amino-5-chlorothiazol-4-yl)-2-(hydroxyimino)acetamido)-3-((5-(methylamino)-1,3,4-thiadiazol-2-ylthio)methylthio)-8-oxo-1-aza-bicyclo[4.2.0]oct-2-ene-2-carboxylic acid] | 1 to 8 µg/mL (≈ 1.73 to 13.9 µM) | 1 to 8 µg/mL (≈ 1.73 to 13.9 µM) | 1 to 8 µg/mL (≈ 1.73 to 13.9 µM) | > 8 µg/mL | > 8 µg/mL | ≤ 1 µg/mL |  |  |  |  |  | 
Nc1nc(/C(=N/O)C(=O)N[C@@H]2C(=O)N3C(C(=O)O)=C(SCc4cn[nH]c4)CC[C@H]23)c(Cl)s1 [Example 27, (6R,7S,Z)-3-((1H-pyrazol-4-yl)methylthio)-7-(2-(2-amino-5-chlorothiazol-4-yl)-2-(hydroxyimino)acetamido)-8-oxo-1-aza-bicyclo[4.2.0]oct-2-ene-2-carboxylic acid] | 1 to 8 µg/mL (≈ 2.01 to 16.1 µM) | 1 to 8 µg/mL (≈ 2.01 to 16.1 µM) | 1 to 8 µg/mL (≈ 2.01 to 16.1 µM) | > 8 µg/mL | > 8 µg/mL | ≤ 1 µg/mL |  |  |  |  |  | 
Cc1ncsc1/C=C\C1=C(C(=O)O)N2C(=O)[C@@H](NC(=O)/C(=N\O)c3nc(N)sc3Cl)[C@H]2CC1 [Example 29, (6R,7S)-7-((Z)-2-(2-amino-5-chlorothiazol-4-yl)-2-(hydroxyimino)acetamido)-3-((Z)-2-(4-methylthiazol-5-yl)vinyl)-8-oxo-1-aza-bicyclo[4.2.0]oct-2-ene-2-carboxylic acid] | ≤ 1 µg/mL | ≤ 1 µg/mL | 1 to 8 µg/mL (≈ 1.96 to 15.7 µM) | 1 to 8 µg/mL (≈ 1.96 to 15.7 µM) | 1 to 8 µg/mL (≈ 1.96 to 15.7 µM) | ≤ 1 µg/mL |  |  |  |  |  | 
Cc1ncsc1/C=C\C1=C(C(=O)O)N2C(=O)[C@@H](NC(=O)/C(=N\O)c3nc(N)sc3Cl)[C@H]2CC1 [Example 31, (6R,7S)-7-((Z)-2-(2-amino-5-chlorothiazol-4-yl)-2-(hydroxyimino)acetamido)-3-((Z)-2-(4-methylthiazol-5-yl)vinyl)-8-oxo-1-aza-bicyclo[4.2.0]oct-2-ene-2-carboxylic acid] |  |  |  |  |  |  | B (MIC's of greater than 1.0 μg/mL to 8.0 μg/mL = B) | B (MIC's of greater than 1.0 μg/mL to 8.0 μg/mL = B) | B (MIC's of greater than 1.0 μg/mL to 8.0 μg/mL = B) | B (MIC's of greater than 1.0 μg/mL to 8.0 μg/mL = B) | B (MIC's of greater than 1.0 μg/mL to 8.0 μg/mL = B) | A (MIC's of 1.0 μg/mL or less = A)
Nc1nc(/C(=N/O)C(=O)N[C@@H]2C(=O)N3C(C(=O)O)=C(/C=C4\CCN([C@@H]5CCNC5)C4=O)CC[C@H]23)c(Cl)s1 [Example 34, (6R,7S)-7-((Z)-2-(2-amino-5-chlorothiazol-4-yl)-2-(hydroxyimino)acetamido)-8-oxo-3-((E)-((R)-2-oxo-1,3′-bipyrrolidin-3-ylidene)methyl)-1-aza-bicyclo[4.2.0]oct-2-ene-2-carboxylic acid] | 1 to 8 µg/mL (≈ 1.82 to 14.5 µM) | ≤ 1 µg/mL | 1 to 8 µg/mL (≈ 1.82 to 14.5 µM) | 1 to 8 µg/mL (≈ 1.82 to 14.5 µM) | 1 to 8 µg/mL (≈ 1.82 to 14.5 µM) | ≤ 1 µg/mL |  |  |  |  |  | 
